According to PMC9114799, “In vitro Evaluation of Isoniazid Derivatives as Potential Agents Against Drug-Resistant Tuberculosis” (Frontiers in Pharmacology, 2022):
≈ marks a conversion by molar mass, not a printed value. Where “and” joins values, the source holds several entries; their conditions need not be identical. Identical values can stand only once. Like-named read-outs stand apart in the source and are kept apart here. Marks after values point to notes of the source that are not given here.

Key:
[1] = target: T1, human serum albumin (HSA) (Homo sapiens, UniProt P02768); settings: for 10-3 K’’b / M-1, HSA binding constant from the variation in amplitude-weighted mean fluorescence lifetime: head prints 10-3 K’’b / M-1, reverse of the dissociation constant
T1 sequence (P02768 25-609): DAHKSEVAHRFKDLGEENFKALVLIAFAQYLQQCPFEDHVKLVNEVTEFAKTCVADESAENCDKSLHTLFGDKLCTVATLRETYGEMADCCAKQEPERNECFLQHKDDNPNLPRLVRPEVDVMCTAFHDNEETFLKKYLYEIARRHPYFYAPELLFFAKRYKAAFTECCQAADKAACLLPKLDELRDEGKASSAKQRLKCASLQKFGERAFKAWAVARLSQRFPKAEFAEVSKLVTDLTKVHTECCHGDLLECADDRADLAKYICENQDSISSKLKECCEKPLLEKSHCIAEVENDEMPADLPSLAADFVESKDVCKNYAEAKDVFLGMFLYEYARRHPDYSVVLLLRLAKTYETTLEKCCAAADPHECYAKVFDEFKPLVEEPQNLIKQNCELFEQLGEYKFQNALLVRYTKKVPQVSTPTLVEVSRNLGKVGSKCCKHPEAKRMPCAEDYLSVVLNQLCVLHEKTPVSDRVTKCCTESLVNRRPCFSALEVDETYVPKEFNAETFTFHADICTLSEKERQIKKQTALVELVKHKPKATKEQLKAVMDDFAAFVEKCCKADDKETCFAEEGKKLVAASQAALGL
Description: (§1) INH and INH derivatives stock solutions were prepared in DMSO. From the stock solutions, appropriate dilutions were prepared so that each compound was added to HSA in PBS at different concentrations ensuring that DMSO was at a fixed concentration of 5% (v/v) in the final solution. […] Three or more independent replicates were prepared and analyzed for each system.
Time-resolved fluorescence measurements were carried out by the single photon counting technique, using a nanoLED N-280 (Horiba Jobin Yvon, Villeneuve D'ascq, France) for the excitation of the protein. […] Ludox® was the scattering agent used to obtain the instrumental response function. The experimental fluorescence intensity decays were analysed with the software TRFA® version 1.4 (Minsk, Belarus). The fluorescence intensity decays, I(t), were analysed by fitting a sum of exponentials, and the decay law was then obtained according to Eq. 1: I(t)= ∑i=1nαi⁡exp(−t/τi) (1) where α i and τ i are the normalized amplitude and lifetime of component i, respectively.
The changes in quantum yield due to processes affecting the fluorescence lifetime were assessed from the amplitude-weighted mean fluorescence lifetime, τ¯ , calculated using Eq. 2: τ¯=∑i=1nαiτi (2)
When used to analyse time-resolved fluorescence data, F is replaced by τ¯ .

[2] = target: T1, human serum albumin (HSA); settings: for 10-3 K’b / M-1, HSA binding constant from fluorescence intensity variation not accounted for by the decrease in lifetime: head prints 10-3 K’b / M-1, reverse of the dissociation constant
Description: as §1
Quartz Suprasil® cuvettes with 1 × 0.4 cm path length were used to gather the spectroscopic data.
The bandwidth was 4 nm in both excitation and emission paths.
Whenever the decrease in τ¯ is smaller than the decrease in the steady-state fluorescence intensity, there are multiple quenching mechanisms responsible for a decrease in fluorescence quantum yield, one affecting the amplitude-weighted mean fluorescence lifetime and the fluorescence intensity alike, and another affecting only the fluorescence intensity (a static quenching mechanism). Therefore, for each data point, the decrease in fluorescence intensity that was not due to a decrease in τ¯ was calculated. These values were used to obtain yet another dissociation constant that corresponds to the binding process affecting only the steady-state fluorescence intensity, also shown in Table 3 (K’d). […] This is a consequence of the much larger relative decrease in fluorescence intensity when compared with the decrease in fluorescence lifetime.
For a static quenching mechanism, K represents the association constant for the formation of non-fluorescent HSA-compound ground-state complex. Therefore, the reverse of K gives an estimate of the dissociation constant. By fitting a straight line to the data in Figure 8 forcing a unitary intercept, i.e., assuming a Stern-Volmer-like behaviour, a reasonable correlation coefficient was obtained in all cases.

[3] = system: HepG2 cells; assay: HepG2 cell viability assay (MTT), 72 h; assay type: cell-based, human; settings: for IC50: Homo sapiens, HepG2, 72 h incubation, MTT, 0.5% DMSO, read-out: IC50 against HepG2 cells
Description: HepG2 cells were plated on 384-well tissue culture treated polystyrene plates at 2000 cells in 25 μl of HepG2 maintenance medium per well. After an overnight incubation at 37°C, the cells were dosed with test compounds in dimethyl sulfoxide (DMSO) and controls over wide ranges of concentrations (Table 1) and incubated for 72 h at 37°C. DMSO was at 0.5% in the final solution. The aqueous solubility of the compounds limited the range of concentrations tested. Cell viability was measured using the Promega CellTiter 96 Non-Radioactive Cell Proliferation Assay (MTT) kit by adding the Dye Solution to each well and incubating for 3 h at 37°C. After incubation, the Solubilization Solution/Stop Mix was added to each well. Plates were incubated at 37°C for 1 h, mixed on a plate shaker for 10 min and then absorbance was read at 570 nm. Cell viability was determined by comparison against control cells in the presence of DMSO only and was measured in three independent replicates for each compound concentration. The IC50 was calculated with GraphPad Prism using a Sigmoidal Dose-response (variable slope) algorithm. Chlorpromazine, a drug with a well-known and characterized hepatotoxicity ([Frötschl et al., 2005]; [Gandhi et al., 2013]; [Morgan et al., 2019]), was used as the positive control.
To evaluate the in vitro toxicity of this series of INH derivatives, the viability of HepG2 cells, a human liver cancer cell line, was determined by the MTT tetrazolium reduction assay ([Riss et al., 2013]), a colorimetric assay to assess cell metabolic activity, and the IC50 value, i.e., the concentration for 50% reduction in cell viability, was obtained for each compound (Supplementary Figure S6). […] The hepatoxicity of INH is well described ([Girling, 1978]; [Wu and Cederbaum, 1996]; [Huang et al., 2003]; [Bhadauria et al., 2007]; [Singh et al., 2011]) and is much lower than that of chlorpromazine.

[4] = system: M. tuberculosis H37Rv ATCC27294 (wt); settings: ref Martins et al., cited from earlier work
[5] = target: warfarin binding site of HSA (Sudlow's binding site I) (Homo sapiens, UniProt P02768); assay: Competitive binding with warfarin (HSA Sudlow's binding site I)
Sequence of warfarin binding site of HSA (Sudlow's binding site I) (P02768 25-609): as above
Description: Warfarin stock solution was also prepared with DMSO.
The interaction of INH and its derivatives with HSA was further examined regarding their putative binding site.
Using the dampening in the fluorescence intensity of warfarin it is possible to retrieve the HSA-compound dissociation constant for the binding site of warfarin (K dc) - Table 3.
From this variation it is possible to retrieve C50, the concentration of compound that displaces half of […]
This concentration is given by the fluorescence intensity corresponding to […]
the intensity of warfarin in water (buffer), which was obtained for warfarin in PBS in the absence of HSA. The C50 value was retrieved for each replicate and the average was used to calculate the Kdc of […]
(1 picture or pasted object on this page, not shown here)

[6] = octanol-water, cited from earlier work
[7] = system: HepG2; settings: cited from earlier work
[8] = assay type: physicochemical; settings: for stability in aqueous solution: pH 7.4; for fluctuation of the absorption spectra in the UV region: over 3 days, PBS pH 7.4 with 5 % DMSO, N33red at 240 nm, N34red at 269 nm
Description: INH-C10, N33 and N34 were obtained as fully described in reference ([Martins et al., 2014]). N33red and N34red were obtained by reduction of the parent Schiff base. Sodium cyanoborohydride (2 equiv.) was added portion wise to a solution of N33 or N34 in hot methanol. The reaction mixture was acidified with methanolic HCl 5M until pH 3; at that point the solution color changed to dark yellow. The reaction was kept under reflux and monitored by TLC until the starting material was consumed. The solvent was then evaporated under reduced pressure, giving an orange-yellow oil. This residue was dissolved in water and basified to pH > 7 by addition of a few drops of NaOH 6 M, to break up the possible cyanoborate adducts. The solution was then washed with brine and extracted several times with dichloromethane, the combined organic extracts were dried with MgSO4 and the solvent evaporated under reduced pressure affording crude yellowish solids. Pure N33red and N34red were obtained after column chromatography with Et2O/MeOH 96.5:3.5 and by recrystallization from CH2Cl2/petroleum ether 2:3, respectively (adapted from ([Borch et al., 1971])). Both N33red and N34red are very stable in aqueous solution (PBS with 5% DMSO) for at least 48 h (Supplementary Figure S5).
Figure S5 – Electronic absorption spectra of N33red and N34red in PBS buffer pH 7.4 with 5 % DMSO
were monitored over 3 days. The fluctuation of the spectra in the UV region of N33red at 240 nm was
less than 1.2% while for N34red at 269 nm was less than 2.5%. The time dependence of the absorbance
uncertainty, thus confirming the stability of both compounds for at least 3 days.

[9] = system: M. tuberculosis H37Rv ATCC27294 (wt); assay: microbe, parasite or virus in culture; assay type: cell-based; parameters: MIC (wt): unit not given here; settings: for MIC: Mycobacterium tuberculosis, wt Mtb H37Rv, tested from 0.03125 to 128 µM; for MIC (wt): Table S1; for activity against the wild-type strain: in words
[10] = Octanol-water partition coefficient, shake-flask method; assay type: physicochemical; settings: pH 7.5, room temperature, preliminary assessment
Description: Lipophilicity was evaluated as log Po/w, the octanol-water partition coefficient obtained by the shake-flask method ([Ràfols et al., 2012]; [Martins et al., 2014]), and as log Kp(NaDS/w) the partition coefficient towards sodium dodecyl sulfate (NaDS) anionic micelles obtained by differential spectrophotometry for INH, INH-C10, N33 and N34 in previous works ([Ràfols et al., 2012]; [Martins et al., 2014]; [Santos et al., 2020]). […] For both compounds, samples were dissolved in water-saturated octanol at pH 7.5 (KH2PO4/NaOH) to guarantee negligible ionization. The partition to octanol-saturated aqueous buffer was evaluated, at room temperature, using a volume ratio, ro/w, of 5/30 and 10/30 for N33red and 2.5/40, 5/40 for N34red, after sonication of the solutions and partition on a mechanical tumbler. Equilibrium concentrations were determined by UV-Vis spectrophotometry between 200 and 500 nm after phase separation.

[11] = target: T1, human serum albumin (HSA); parameters: purchased Merck (Sigma-Aldrich) A9511; method as in Ascenzi et al., 2011; settings: ref Ascenzi et al., 2011; read-out: K d for HSA previously reported; cited from earlier work
[12] = head prints 10-3 Kbc / M-1, equimolar HSA and warfarin, reverse of the dissociation constant
[13] = HepG2, 72 h incubation, ref Lupien et al., 2018

SMILES	Kd [1] [µM]	Kd [2]	10-3 K’b / M-1, HSA binding constant from fluorescence intensity variation not accounted for by the decrease in lifetime [2]	IC50 [3] [µM]	MIC (wt) ([4]; wt Mtb H37Rv, 2014)	Kd [5] [µM]	10-3 Kbc / M-1, binding constant for the warfarin binding site [5, 12]	other results
CCCCCCCCCC(=O)NNC(=O)c1ccncc1 [INH-C10, N′-decanoylisonicotinoylhydrazide]	120 ± 3	46 µM and 50 µM and 70 µM	18.6 ± 5.58 10^3 M-1	> 25	0.38 ^a µM	400 ± 200	2.43 ± 0.86 10^3 M-1	10-3 K’’b / M-1, HSA binding constant from the variation in amplitude-weighted mean fluorescence lifetime [1]: 8.33 ± 0.21 10^3 M-1; log P o/w ± SD ([6]; ref Ràfols et al., 2012): 3.5 ± 0.2 ^b
CN(C)CCCN1c2ccccc2Sc2ccc(Cl)cc21 [Chlorpromazine, reference compound]	–	–	–	13.9	–	–	–	IC50 ([7]; same cell line (HepG2), 24 h incubation, ref Wang et al., 2002): 34.7 µM
O=C(NNCc1ccc(Oc2ccccc2)cc1)c1ccncc1 [Compound N34red, N'-(4-phenoxybenzyl)isonicotinohydrazide]	730	150 µM and 140 µM and 90 µM	–	48.5	–	340 ± 20	2.99 ± 0.17 10^3 M-1	stability in aqueous solution ([8]; 48 h): at least 48 h; stability in aqueous solution ([8]; 3 days): at least 3 days; fluctuation of the absorption spectra in the UV region [8]: less than 2.5%; MIC [9]: 1 µM (≈ 0.319 µg/mL); MIC (wt) [9]: 0.3; activity against the wild-type strain [9]: active; logP [10]: 2.6 ± 0.2
COC(=O)c1ccc(/C=N/NC(=O)c2ccncc2)cc1 [Compound N33, methyl (E)-4-((2-isonicotinoylhydrazineylidene)methyl)benzoate]	80 ± 60	160 µM and 200 µM and 120 µM	5.00 ± 2.50 10^3 M-1	> 25	1.06 ^a µM	54 ± 4	18.5 ± 1.3 10^3 M-1	10-3 K’’b / M-1, HSA binding constant from the variation in amplitude-weighted mean fluorescence lifetime [1]: 12.5 ± 9.4 10^3 M-1; log P o/w ± SD ([6]; ref Martins et al., 2014): 1.32 ± 0.06 ^c
NNC(=O)c1ccncc1 [INH, isonicotinoylhydrazide, reference compound]	–	2.72 mM (2×) and 1.65 mM	0.37 ± 0.01 10^3 M-1	> 200	0.29 ^a µM	4550 ± 50	0.22 ± 0.01 10^3 M-1	Kd ([2]; K d for HSA, fluorescence intensity corrected for inner filter effects, steady-state fluorescence, text and Figure S7): ~1000 µM; effect on HepG2 cell viability ([3]; up to 200 µM, 72 h): did not significantly affect HepG2 cell viability; MIC (wt) ([4]; Table S1, 2014 (per Table 2)): 0.04 g/mL (≈ 292 mM); Kd [11]: 390 µM; log P o/w ± SD ([6]; ref Ràfols et al., 2012): −0.85 ± 0.01 ^b
COc1nc2ccc(Br)cc2cc1[C@@H](c1ccccc1)[C@@](O)(CCN(C)C)c1cccc2ccccc12 [bedaquiline]	–	–	–	–	–	–	–	IC50 [7, 13]: 17.4 µM
COC(=O)c1ccc(CNNC(=O)c2ccncc2)cc1 [Compound N33red, methyl 4-((2-isonicotinoylhydrazinyl)methyl)benzoate]	–	600 µM (2×) and 560 µM	1.77 ± 0.65 10^3 M-1	> 200	–	900 ± 300	–	stability in aqueous solution ([8]; 48 h): at least 48 h; stability in aqueous solution ([8]; 3 days): at least 3 days; fluctuation of the absorption spectra in the UV region [8]: less than 1.2%; MIC [9]: 2 µM (≈ 0.571 µg/mL); MIC (wt) [9]: 0.6; activity against the wild-type strain [9]: active; Kd ([5]; 10-3 Kbc / M-1, binding constant for the warfarin binding site, head prints 10-3 Kbc / M-1, equimolar HSA and warfarin, reverse of the dissociation constant): 746 µM; logP [10]: 1.33 ± 0.04
C[C@]1(COc2ccc(N3CCC(Oc4ccc(OC(F)(F)F)cc4)CC3)cc2)Cn2cc([N+](=O)[O-])nc2O1 [delamanid]	–	–	–	–	–	–	–	IC50 [7, 13]: 98.9 µM
O=C(N/N=C/c1ccc(Oc2ccccc2)cc1)c1ccncc1 [Compound N34, (E)-N'-(4-phenoxybenzylidene)isonicotinohydrazide]	521	130 µM and 110 µM and 70 µM	–	> 200	0.95 ^a µM	128 ± 5	7.8 ± 0.3 10^3 M-1	–
CO[C@H]1/C=C/O[C@@]2(C)Oc3c(C)c(O)c4c(O)c(c(/C=N/N5CCN(C)CC5)c(O)c4c3C2=O)NC(=O)/C(C)=C\C=C\[C@H](C)[C@H](O)[C@@H](C)[C@@H](O)[C@@H](C)[C@H](OC(C)=O)[C@@H]1C [Rifampin]	–	–	–	–	–	–	–	IC50 ([7]; ref Vahdati-Mashhadian et al., 2013): 25.5 µM
